From publication PMC6508677, “Identification of druggable small molecule antagonists of the Plasmodium falciparum hexose transporter PfHT and assessment of ligand access to the glucose permeation pathway via FLAG-mediated protein engineering” (PLoS ONE, 2019)
“And” between values parts separate entries of the source, which are not always exact repeats. Equal entries are not always repeated. Where two headings read alike, the source gives them in different places.

Assays:
blood stage parasites = test system: blood stage parasites; parameters: method as in PMID 26248369; conditions: read-out: IC50 against blood stage parasites; cited from earlier work
PfHT [1] = biological target: T1, PfHT (Plasmodium falciparum, UniProt Q7KWJ5); experiment: Kinetic analysis of 2-DG uptake (Km) in HEK293 cells overexpressing PfHT
T1 sequence (Q7KWJ5 1-504): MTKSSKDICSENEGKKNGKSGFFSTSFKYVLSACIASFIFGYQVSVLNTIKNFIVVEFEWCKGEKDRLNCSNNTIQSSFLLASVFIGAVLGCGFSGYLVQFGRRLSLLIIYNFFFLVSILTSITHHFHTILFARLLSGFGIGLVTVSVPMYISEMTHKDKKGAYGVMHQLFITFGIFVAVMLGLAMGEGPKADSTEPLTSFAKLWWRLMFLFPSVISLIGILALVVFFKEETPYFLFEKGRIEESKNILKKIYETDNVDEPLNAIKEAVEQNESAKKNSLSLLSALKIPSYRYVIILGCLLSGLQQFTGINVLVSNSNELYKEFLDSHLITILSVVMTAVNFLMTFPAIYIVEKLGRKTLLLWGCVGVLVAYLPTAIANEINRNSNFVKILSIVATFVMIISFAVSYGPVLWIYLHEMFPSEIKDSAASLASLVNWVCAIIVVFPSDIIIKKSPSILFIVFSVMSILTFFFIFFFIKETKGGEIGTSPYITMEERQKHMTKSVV
Method: (§3) Glucose uptake by P. falciparum was performed essentially as described [23]. P. falciparum strain 3D7 was cultured in 100 mm tissue culture dishes (Techno Plastic Products) in a 2% suspension of human erythrocytes and RPMI 1640 medium until reaching > 7.5% parasitemia. Cells were pelleted via centrifugation and resuspended in RPMI 1640 medium. To determine the uptake of radiolabeled glucose into the parasite, parasites were isolated from infected erythrocytes by permeablization with saponin (0.05 w/v), followed by centrifugation, aspiration of supernatant and washing of the pellet 3X with saline solution (135 mM NaCl, 2 mM KCl, 25 mM HEPES, 0.2 mM glucose and 1 mM MgCl2; pH 7.1) to remove cellular debris. WU-1 or DMSO vehicle were added to 100 μl parasites (resuspended in saline) 5 min prior to the addition of 100 μl [^14C]2-DOG (0.2- μCi/ml final concentration). 2-DG uptake was stopped after 2 min by layering the entire reaction over 300 μl of an oil mixture (5:4 mix of dibutyl phthalate / dinonyl phthalate) in Eppendorf tubes and centrifuged at 15,850 × g for 2 mins. The ratio of the estimated intracellular concentration of radiolabel relative to the extracellular concentration were calculated as described [23]. Uptake of radiolabeled hexose into HEK293 cells was measured in glucose-free HBSS as described previously [24]. Briefly, cells were plated at 400,000 cells/well overnight at 37°C in 24-well plates pre-treated with PEI. After 30-min incubation at 37°C in glucose-free HBSS in the presence of vehicle or increasing concentrations of compound, 2-DG uptake was measured in glucose-free HBSS for 4 min at 37°C. Cultures were washed in ice-cold 1X PBS and lysed in 0.1% Triton X-100 in 1X PBS. Radiolabeled hexose uptake was determined by liquid scintillation counting (Ultima Gold, Thermo Fisher) and normalized to total protein per well. Uptake data are plotted as percent uptake relative to vehicle-treated cells. Kinetic analyses were performed using the indicated concentrations of substrate and WU-1, with quenching of uptake after 1 min incubation. […] Data were fit by least squares nonlinear regression analysis using GraphPad Prism 6.0 software.

FTPfHT [2] = biological target: T2, FTPfHT (Plasmodium falciparum, UniProt Q7KWJ5); experiment: Kinetic analysis of 2-DG uptake (Km) in HEK293 cells overexpressing FTPfHT; format: cell-based; parameters: the 38–40 kDa band represents full length PfHT; expressed in transfected cells; host or cells: HEK293-FLIP (HEK293); conditions: average of Expt 1-3
T2 sequence (Q7KWJ5 1-504): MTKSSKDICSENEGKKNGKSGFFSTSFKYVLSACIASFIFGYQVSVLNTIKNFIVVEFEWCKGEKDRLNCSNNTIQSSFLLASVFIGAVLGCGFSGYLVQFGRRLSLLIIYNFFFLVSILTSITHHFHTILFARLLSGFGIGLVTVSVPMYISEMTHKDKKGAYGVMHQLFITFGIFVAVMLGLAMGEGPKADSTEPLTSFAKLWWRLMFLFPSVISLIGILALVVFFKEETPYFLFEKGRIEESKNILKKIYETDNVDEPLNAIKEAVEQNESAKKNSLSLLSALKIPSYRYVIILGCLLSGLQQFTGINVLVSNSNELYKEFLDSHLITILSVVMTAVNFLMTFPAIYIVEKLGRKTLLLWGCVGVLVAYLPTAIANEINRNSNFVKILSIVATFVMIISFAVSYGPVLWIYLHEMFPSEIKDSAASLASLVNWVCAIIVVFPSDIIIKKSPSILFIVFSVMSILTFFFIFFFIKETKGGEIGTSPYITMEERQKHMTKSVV
Method: (§4) Glucose uptake by P. falciparum was performed essentially as described [23]. P. falciparum strain 3D7 was cultured in 100 mm tissue culture dishes (Techno Plastic Products) in a 2% suspension of human erythrocytes and RPMI 1640 medium until reaching > 7.5% parasitemia. Cells were pelleted via centrifugation and resuspended in RPMI 1640 medium. To determine the uptake of radiolabeled glucose into the parasite, parasites were isolated from infected erythrocytes by permeablization with saponin (0.05 w/v), followed by centrifugation, aspiration of supernatant and washing of the pellet 3X with saline solution (135 mM NaCl, 2 mM KCl, 25 mM HEPES, 0.2 mM glucose and 1 mM MgCl2; pH 7.1) to remove cellular debris. […] The ratio of the estimated intracellular concentration of radiolabel relative to the extracellular concentration were calculated as described [23]. Uptake of radiolabeled hexose into HEK293 cells was measured in glucose-free HBSS as described previously [24]. […] After 30-min incubation at 37°C in glucose-free HBSS in the presence of vehicle or increasing concentrations of compound, 2-DG uptake was measured in glucose-free HBSS for 4 min at 37°C. […] Radiolabeled hexose uptake was determined by liquid scintillation counting (Ultima Gold, Thermo Fisher) and normalized to total protein per well. […]

GLUT1 Y293I = test system: GLUT1 Y293I; parameters: method as in PMID 8157690; conditions: GLUT1 Y293I vs wild type; cited from earlier work
PfHT [3] = biological target: T1, PfHT; experiment: 2-DG uptake by HEK293 cells overexpressing PfHT; format: cell-based; parameters: expressed in transfected cells; host or cells: HEK293 (HEK293-FLIP, native hGLUT1 knocked down by shRNA)
From the text: (§1) Generation of HEK293 cells overexpressing PfHT and human GLUTs 1–4 were described elsewhere. Briefly, HEK293 cells were transfected with pcDNA3.1 FLII12Pglu-7006 (Addgene), containing the fluorescence resonance energy transfer (FRET) glucose sensor (HEK293-FLIP) and PfHT, human GLUT1 (hGLUT1), hGLUT2, hGLUT3, hGLUT4, hGLUT5 or hGLUT8 using Optifect (Life Technologies) according to manufacturer’s specifications. To increase retention of GLUT8 at the plasma membrane, the dileucine sorting signal E^7E^8XXXLL was modified to R^7R^8XXXLL as described in [17]. Stable transfectants were selected for G418 and hygromycin resistance to select for FRET sensor and hexose transporter, respectively. HEK293-FLIP cells were also used to generate cells stably transfected with FLAG-tagged PfHT (FTPfHT). FLAG tag ([…]) followed by a triple glycine linker and a tobacco etch virus (TEV) protease site (ENLYFQS) followed by a triple glycine linker was added to the N-terminus of PfHT via PCR [18] using Phusion Hot Start II High-Fidelity DNA Polymerase (Fisher Scientific). Single clones were selected by comparing their abilities to transport glucose as assayed via FRET and radiolabeled hexose uptake. In all cell lines, except for HEK293 cells overexpressing hGLUT1 and hGLUT5, native hGLUT1 was knocked down using shRNA as described elsewhere. Transcript levels of the individual GLUTs expressed in each cell line are as described in [13, 15] and in S1 Fig.
(§2) Glucose uptake by P. falciparum was performed essentially as described. P. falciparum strain 3D7 was cultured in 100 mm tissue culture dishes (Techno Plastic Products) in a 2% suspension of human erythrocytes and RPMI 1640 medium until reaching > 7.5% parasitemia. Cells were pelleted via centrifugation and resuspended in RPMI 1640 medium. To determine the uptake of radiolabeled glucose into the parasite, parasites were isolated from infected erythrocytes by permeablization with saponin (0.05 w/v), followed by centrifugation, aspiration of supernatant and washing of the pellet 3X with saline solution (135 mM NaCl, 2 mM KCl, 25 mM HEPES, 0.2 mM glucose and 1 mM MgCl2; pH 7.1) to remove cellular debris. WU-1 or DMSO vehicle were added to 100 μl parasites (resuspended in saline) 5 min prior to the addition of 100 μl [^14C]2-DOG (0.2- μCi/ml final concentration). 2-DG uptake was stopped after 2 min by layering the entire reaction over 300 μl of an oil mixture (5:4 mix of dibutyl phthalate / dinonyl phthalate) in Eppendorf tubes and centrifuged at 15,850 × g for 2 mins. The ratio of the estimated intracellular concentration of radiolabel relative to the extracellular concentration were calculated as described. Uptake of radiolabeled hexose into HEK293 cells was measured in glucose-free HBSS as described previously. Briefly, cells were plated at 400,000 cells/well overnight at 37°C in 24-well plates pre-treated with PEI. After 30-min incubation at 37°C in glucose-free HBSS in the presence of vehicle or increasing concentrations of compound, 2-DG uptake was measured in glucose-free HBSS for 4 min at 37°C. Cultures were washed in ice-cold 1X PBS and lysed in 0.1% Triton X-100 in 1X PBS. Radiolabeled hexose uptake was determined by liquid scintillation counting (Ultima Gold, Thermo Fisher) and normalized to total protein per well. Uptake data are plotted as percent uptake relative to vehicle-treated cells. Kinetic analyses were performed using the indicated concentrations of substrate and WU-1, with quenching of uptake after 1 min incubation. Incubation times had been previously determined as being in the linear range of time-dependent radiolabeled hexose uptake (2 min for 2-DG uptake into freed parasites; 2 and 4 min for D-Frc and 2-DG uptake HEK cell lines, respectively). Data were fit by least squares nonlinear regression analysis using GraphPad Prism 6.0 software.

FTPfHT [4] = biological target: T2, FTPfHT; experiment: 2-DG uptake by HEK293 cells overexpressing FLAG-tagged PfHT (FTPfHT); format: cell-based; parameters: the 38–40 kDa band represents full length PfHT; expressed in transfected cells; host or cells: HEK293-FLIP (HEK293); key to 2-DG Uptake AVE: % uptake relative to vehicle-treated cells
From the text: as §1, §2

[5] = substrate: O=CC[C@@H](O)[C@H](O)[C@H](O)CO; experiment: cells, lysate or membranes; format: cell-based, Plasmodium falciparum; conditions: other: 2-DG uptake (1 min), FTPfHT; pH 7.1; 37.0 °C
Method: as §4

[6] = substrate: O=CC[C@@H](O)[C@H](O)[C@H](O)CO; experiment: cells, lysate or membranes; conditions: other: 2-DG uptake (1 min), PfHT; pH 7.1; 37.0 °C
Method: as §3

Molecule: Cc1cccc(C)c1OCC(=O)N[C@@H](Cc1ccccc1)[C@@H](O)C[C@H](Cc1ccccc1)NC(=O)[C@H](C(C)C)N1CCCNC1=O [lopinavir]
- IC50 (blood stage parasites): 0.016 mM

Molecule: O=C(CO)[C@@H](O)[C@H](O)[C@H](O)CO [D-frc]
- Km (1/v) D-frc uptake: AVE IC50 (PfHT [1]; average of Expt 1-3): 1.83 mM
- Km (1/v) D-frc uptake: IC50 (PfHT [1]; single experiments Expt 1-3): 2.5 mM and 1.6 mM and 1.38 mM
- Km (1/v) D-frc uptake: AVE IC50 (FTPfHT [2]): 2.07 mM

Molecule: CC1OC[C@H]2O[C@H](O)[C@H](O)[C@@H](O)[C@@H]2O1 (stereo partly drawn) [Ethylideneglucose, 4,6-O-ethylidene-α-D-glucose, reference compound]
- decrease of Ki by Y293I mutation (GLUT1 Y293I): > 2 fold
- IC50 (PfHT [3]; PfHT, 2-DG Uptake, average of Expt 1-3, read-out: AVE IC50): 5.79 mM
- IC50 (PfHT [3]; PfHT, 2-DG Uptake, single experiments Expt 1-3, read-out: IC50): 5.99 mM
- 2-DG Uptake AVE (PfHT [3]; PfHT, concentration 0.001 mM, Expt 1-3): 100.00
- 2-DG Uptake AVE (PfHT [3]; PfHT, concentration 0.3125 mM): 94.37 and 96.75 and 86.10
- 2-DG Uptake AVE (PfHT [3]; PfHT, concentration 0.625 mM): 89.78 and 84.91 and 77.97
- 2-DG Uptake AVE (PfHT [3]; PfHT, concentration 1.25 mM): 82.38 and 77.88 and 79.22
- 2-DG Uptake AVE (PfHT [3]; PfHT, concentration 2.5 mM): 70.45 and 76.21 and 65.14
- 2-DG Uptake AVE (PfHT [3]; PfHT, concentration 5 mM): 56.80 and 57.04 and 54.41
- 2-DG Uptake AVE (PfHT [3]; PfHT, concentration 10 mM): 38.62 and 35.32 and 38.49
- 2-DG Uptake AVE (PfHT [3]; PfHT, concentration 20 mM): 25.77 and 23.49 and 21.21
- 2-DG Uptake AVE (PfHT [3]; PfHT, concentration 40 mM): 17.24 and 14.68 and 18.76
- 2-DG Uptake AVE (PfHT [3]; PfHT, concentration 80 mM): 11.01 and 10.15 and 11.14
- 2-DG Uptake AVE (PfHT [3]; PfHT, concentration 160 mM): 6.85 and 7.66 and 8.85
- 2-DG Uptake AVE (PfHT [3]; PfHT, concentration 320 mM): 4.36 and 4.29 and 5.25
- IC50 (PfHT [3]; read-out: IC50 for inhibition of 2-DG uptake, HEK293 cells overexpressing PfHT): 5.9 ± 0.15 mM
- IC50 (FTPfHT [4]; FTPfHT, 2-DG Uptake, single experiments Expt 1-3, read-out: IC50): 1.49 mM and 1.83 mM and 1.17 mM
- 2-DG Uptake AVE (FTPfHT [4]; FTPfHT, concentration 0.001 mM, Expt 1-3): 100.00
- 2-DG Uptake AVE (FTPfHT [4]; FTPfHT, concentration 0.0390625 mM): 96.35
- 2-DG Uptake AVE (FTPfHT [4]; FTPfHT, concentration 0.078125 mM): 89.02 and 99.10 and 95.29
- 2-DG Uptake AVE (FTPfHT [4]; FTPfHT, concentration 0.15625 mM): 83.11 and 96.24 and 85.58
- 2-DG Uptake AVE (FTPfHT [4]; FTPfHT, concentration 0.3125 mM): 83.21 and 82.95 and 84.08
- 2-DG Uptake AVE (FTPfHT [4]; FTPfHT, concentration 0.63 mM): 73.60 and 68.20 and 76.54
- 2-DG Uptake AVE (FTPfHT [4]; FTPfHT, concentration 1.25 mM): 62.34 and 52.24 and 56.96
- 2-DG Uptake AVE (FTPfHT [4]; FTPfHT, concentration 2.5 mM): 40.70 and 31.77 and 32.91
- 2-DG Uptake AVE (FTPfHT [4]; FTPfHT, concentration 5 mM): 18.95 and 15.78 and 18.06
- 2-DG Uptake AVE (FTPfHT [4]; FTPfHT, concentration 10 mM): 13.87 and 9.18 and 10.65
- 2-DG Uptake AVE (FTPfHT [4]; FTPfHT, concentration 20 mM): 7.63 and 6.14 and 7.00
- 2-DG Uptake AVE (FTPfHT [4]; FTPfHT, concentration 40 mM): 5.44 and 4.46 and 5.15
- 2-DG Uptake AVE (FTPfHT [4]; FTPfHT, concentration 80 mM): 5.14 and 3.60
- IC50 (FTPfHT [4]; read-out: IC50 for inhibition of 2-DG uptake, HEK293 cells overexpressing FTPfHT): 1.5 ± 0.2 mM

B1: FTPfHT (Plasmodium falciparum 3D7) (protein)
chain: MTKSSKDICSENEGKKNGKSGFFSTSFKYVLSACIASFIFGYQVSVLNTIKNFIVVEFEWCKGEKDRLNCSNNTIQSSFLLASVFIGAVLGCGFSGYLVQFGRRLSLLIIYNFFFLVSILTSITHHFHTILFARLLSGFGIGLVTVSVPMYISEMTHKDKKGAYGVMHQLFITFGIFVAVMLGLAMGEGPKADSTEPLTSFAKLWWRLMFLFPSVISLIGILALVVFFKEETPYFLFEKGRIEESKNILKKIYETDNVDEPLNAIKEAVEQNESAKKNSLSLLSALKIPSYRYVIILGCLLSGLQQFTGINVLVSNSNELYKEFLDSHLITILSVVMTAVNFLMTFPAIYIVEKLGRKTLLLWGCVGVLVAYLPTAIANEINRNSNFVKILSIVATFVMIISFAVSYGPVLWIYLHEMFPSEIKDSAASLASLVNWVCAIIVVFPSDIIIKKSPSILFIVFSVMSILTFFFIFFFIKETKGGEIGTSPYITMEERQKHMTKSVV
notes: the 38–40 kDa band represents full length PfHT; expressed in transfected cells; host or cells: HEK293-FLIP (HEK293)
- Km [5]: 2100 ± 500 µM

B2: PfHT (Plasmodium falciparum 3D7) (protein)
chain: MTKSSKDICSENEGKKNGKSGFFSTSFKYVLSACIASFIFGYQVSVLNTIKNFIVVEFEWCKGEKDRLNCSNNTIQSSFLLASVFIGAVLGCGFSGYLVQFGRRLSLLIIYNFFFLVSILTSITHHFHTILFARLLSGFGIGLVTVSVPMYISEMTHKDKKGAYGVMHQLFITFGIFVAVMLGLAMGEGPKADSTEPLTSFAKLWWRLMFLFPSVISLIGILALVVFFKEETPYFLFEKGRIEESKNILKKIYETDNVDEPLNAIKEAVEQNESAKKNSLSLLSALKIPSYRYVIILGCLLSGLQQFTGINVLVSNSNELYKEFLDSHLITILSVVMTAVNFLMTFPAIYIVEKLGRKTLLLWGCVGVLVAYLPTAIANEINRNSNFVKILSIVATFVMIISFAVSYGPVLWIYLHEMFPSEIKDSAASLASLVNWVCAIIVVFPSDIIIKKSPSILFIVFSVMSILTFFFIFFFIKETKGGEIGTSPYITMEERQKHMTKSVV
- Km [6]: 1800 ± 300 µM
